Reference: the supplement of paper PMC11061612

Columns and labels:
[1] = test system: OCUB-M (Breast Carcinoma); test: combination Emax (second highest fraction inhibited in the dose matrix, 72 h); higher = more inhibition; extreme values may be limits of the assay
Outline: (§1)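 Cell lines grown in DMEM/F12 or RPMI with 10% FBS were plated in 1536-well plates and held 24 hours at 37°C, 5% CO2 before 72 hours of exposure to two-drug dose matrices, with DMSO typically at 0.2%. CellTiter-Glo 2.0 luminescence gave viability, which was converted to inhibition. Vehicle wells were set to 0 and blank wells to 1. Combination Emax is the second-highest inhibition in the matrix, and Bliss excess is the observed combination effect minus the expected EA + EB − EA·EB, where EA and EB are the single-agent effects.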

EW-13 (Ewing's Sarcoma) = test: as above
Outline: as §1

[2] = test system: KLE (Endometrial Carcinoma); test: as above
Outline: as §1

[3] = test system: KYSE-150 (Esophageal Squamous Cell Carcinoma); test: as above
Outline: as §1

[4] = test system: EMC-BAC-2 (Non-Small Cell Lung Carcinoma); test: as above
Outline: as §1

[5] = test system: NCI-H513 (Other Solid Carcinomas); test: as above
Outline: as §1

GI-1 (Glioblastoma) = test: as above
Outline: as §1

IMR-5 (Neuroblastoma) = test: as above
Outline: as §1

[6] = test system: KINGS-1 (Low Grade Glioma); test: as above
Outline: as §1

[7] = test system: KYSE-50 (Esophageal Squamous Cell Carcinoma); test: as above
Outline: as §1

[8] = test system: EBC-1 (Squamous Cell Lung Carcinoma); test: as above
Outline: as §1

[9] = test system: OCUB-M (Breast Carcinoma); test: Bliss excess, mean over the matrix (fraction); higher = more synergy
Outline: as §1

[10] = test system: HuP-T3 (Pancreatic Carcinoma); test: as above
Outline: as §1

[11] = test system: VMRC-LCD (Lung Adenocarcinoma); test: as above
Outline: as §1

[12] = test system: NCI-H1573 (Lung Adenocarcinoma); test: as above
Outline: as §1

EW-3 (Ewing's Sarcoma) = test: as above
Outline: as §1

[13] = test system: NCI-N87 (Gastric Carcinoma); test: as above
Outline: as §1
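For Bliss excess, mean over the matrix in this document: after 72 h of two-drug dosing.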

Structure (SMILES)	combination Emax [1]	combination Emax (EW-13 (Ewing's Sarcoma))	combination Emax [2]	combination Emax [3]	combination Emax [4]	combination Emax [5]	combination Emax (GI-1 (Glioblastoma))	combination Emax (IMR-5 (Neuroblastoma))	combination Emax [6]	combination Emax [7]	combination Emax [8]	Bliss excess [9]	Bliss excess [10]	Bliss excess [11]	Bliss excess [12]	Bliss excess (EW-3 (Ewing's Sarcoma))	Bliss excess [13]
C[C@@H]1COCCN1c1cc(C2([S@](C)(=N)=O)CC2)nc(-c2ccnc3[nH]ccc23)n1 [AZD6738] + O=C(c1cc(Cc2n[nH]c(=O)c3ccccc23)ccc1F)N1CCN(C(=O)C2CC2)CC1 [Olaparib] (first compound max 10 µM, 7x7, partner max 10 µM)	0.634	0.757	0.482	0.567	0.446	0.362	0.926	0.958	0.376	0.437	0.487	0.0347	0.0066	-0.0231	0.0201	-0.0558	0.0043
Cc1cc2ncnn2cc1Nc1ncc2c(n1)n(C1CCOCC1)c(=O)n2C [AZD7648] + C=CCn1c(=O)c2cnc(Nc3ccc(N4CCN(C)CC4)cc3)nc2n1-c1cccc(C(C)(C)O)n1 [AZD1775] (first compound max 10 µM, partner max 1 µM)	0.448	0.332	0.508	0.643	0.392	0.431	0.86	0.781	0.318	0.431	0.209	0.0389	-0.0189	-0.0057	-0.0215	-0.0894	-0.0342
Cc1cc2ncnn2cc1Nc1ncc2c(n1)n(C1CCOCC1)c(=O)n2C [AZD7648] + CCN(CCO)CCCOc1ccc2c(Nc3cc(CC(=O)Nc4cccc(F)c4)[nH]n3)ncnc2c1 [AZD2811] (first compound max 10 µM, 7x7, partner max 1 µM)	0.764	0.291	0.382	0.658	0.349	0.116	0.425	0.98	0.353	0.341	0.18	-0.0108	0.0003	-0.0267	0.0382	-0.0156	0.0081
Cc1cc2ncnn2cc1Nc1ncc2c(n1)n(C1CCOCC1)c(=O)n2C [AZD7648] + CN(C)CCCOc1ccc(-c2ccc3ncc4c(c3c2)n(C2CCOCC2)c(=O)n4C)cn1 [AZD0156] (first compound max 10 µM, 7x7, partner max 1 µM)	0.4	0.325	0.36	0.532	0.311	0.133	0.261	0.239	0.3	0.164	0.218	-0.0055	-0.0065	0.0122	-0.0085	-0.0281	0.0452
Cc1cc2ncnn2cc1Nc1ncc2c(n1)n(C1CCOCC1)c(=O)n2C [AZD7648] + C[C@@H]1COCCN1C2=NC(=NC(=C2)C3(CC3)[S@](=N)(=O)C)C4=C5C=CNC5=NC=C4 [AZD6738] (first compound max 10 µM, 7x7, partner max 10 µM)	0.49	0.564	0.419	0.561	0.513	0.31	0.888	0.951	0.283	0.628	0.293	0.0509	-0.0453	0.0143	0.0363	-0.0607	0.024
Cc1cc2ncnn2cc1Nc1ncc2c(n1)n(C1CCOCC1)c(=O)n2C [AZD7648] + O=C(c1cc(Cc2n[nH]c(=O)c3ccccc23)ccc1F)N1CCN(C(=O)C2CC2)CC1 [Olaparib] (first compound max 10 µM, 7x7, partner max 10 µM)	0.256	0.564	0.419	0.537	0.204	0.257	0.261	0.475	0.189	0.0839	0.202	-0.0467	-0.0254	-0.0443	-0.0205	-0.0743	-0.0262
COc1cccc2c1C(=O)c1c(O)c3c(c(O)c1C2=O)C[C@@](O)(C(=O)CO)C[C@@H]3O[C@H]1C[C@H](N)[C@H](O)[C@H](C)O1 [Doxorubicin] + Cc1cc2ncnn2cc1Nc1ncc2c(n1)n(C1CCOCC1)c(=O)n2C [AZD7648] (first compound max 1 µM, 7x7, partner max 10 µM)	0.943	0.745	0.6	0.958	0.829	0.527	0.929	1	0.664	0.678	0.496	0.0696	0.0022	0.0256	-0.0038	0.005	-0.0298
COc1cccc(OCCCN)c1-c1cc(Nc2cnc(C#N)cn2)n[nH]1 [Prexasertib] + C=CCn1c(=O)c2cnc(Nc3ccc(N4CCN(C)CC4)cc3)nc2n1-c1cccc(C(C)(C)O)n1 [AZD1775] (first compound max 1 µM, partner max 1 µM)	0.954	0.611	0.674	0.866	0.608	0.505	0.994	1	0.638	0.852	0.666	0.232	0.0054	-0.0072	0.108	0.0286	-0.0324
